The text below walks through data of ChEMBL document CHEMBL3808366, “Facile and efficient synthesis and biological evaluation of 4-anilinoquinazoline derivatives as EGFR inhibitors” (Bioorg Med Chem Lett, 2016).

pIC50: −log10 of the molar value. Calls of active or inactive are those of the source. The calls are words filed in the database; no cut-off is given here.

The subject of one assay is NCI-H1975. The assay can be described thus: Antiproliferative activity against human NCI-H1975 cells over expressing EGFR after 48 hrs by MTT assay. Format: functional, cell-based. The settings on record: NCI-H1975, 48 h.
Another assay has as its system HepG2. The experiment in a line: Antiproliferative activity against human HepG2 cells over expressing EGFR after 48 hrs by MTT assay. To be noted: HepG2, 48 h. The class given is functional, cell-based.
Assay [1] in a line: Antiproliferative activity against human SMMC7721 cells over expressing EGFR after 48 hrs by MTT assay. Format: functional, cell-based. The settings on record: SMMC-7721, 48 h.
Assay [2] addresses Epidermal growth factor receptor (Homo sapiens) (UniProt P00533). The settings on record: NCI-H1975, at 1 µM.
Description: Inhibition of EGFR autophosphorylation at Tyr1068 site in human NCI-H1975 cells at 1 uM by western blotting analysis

Chain of Epidermal growth factor receptor (Homo sapiens) (P00533 whole entry): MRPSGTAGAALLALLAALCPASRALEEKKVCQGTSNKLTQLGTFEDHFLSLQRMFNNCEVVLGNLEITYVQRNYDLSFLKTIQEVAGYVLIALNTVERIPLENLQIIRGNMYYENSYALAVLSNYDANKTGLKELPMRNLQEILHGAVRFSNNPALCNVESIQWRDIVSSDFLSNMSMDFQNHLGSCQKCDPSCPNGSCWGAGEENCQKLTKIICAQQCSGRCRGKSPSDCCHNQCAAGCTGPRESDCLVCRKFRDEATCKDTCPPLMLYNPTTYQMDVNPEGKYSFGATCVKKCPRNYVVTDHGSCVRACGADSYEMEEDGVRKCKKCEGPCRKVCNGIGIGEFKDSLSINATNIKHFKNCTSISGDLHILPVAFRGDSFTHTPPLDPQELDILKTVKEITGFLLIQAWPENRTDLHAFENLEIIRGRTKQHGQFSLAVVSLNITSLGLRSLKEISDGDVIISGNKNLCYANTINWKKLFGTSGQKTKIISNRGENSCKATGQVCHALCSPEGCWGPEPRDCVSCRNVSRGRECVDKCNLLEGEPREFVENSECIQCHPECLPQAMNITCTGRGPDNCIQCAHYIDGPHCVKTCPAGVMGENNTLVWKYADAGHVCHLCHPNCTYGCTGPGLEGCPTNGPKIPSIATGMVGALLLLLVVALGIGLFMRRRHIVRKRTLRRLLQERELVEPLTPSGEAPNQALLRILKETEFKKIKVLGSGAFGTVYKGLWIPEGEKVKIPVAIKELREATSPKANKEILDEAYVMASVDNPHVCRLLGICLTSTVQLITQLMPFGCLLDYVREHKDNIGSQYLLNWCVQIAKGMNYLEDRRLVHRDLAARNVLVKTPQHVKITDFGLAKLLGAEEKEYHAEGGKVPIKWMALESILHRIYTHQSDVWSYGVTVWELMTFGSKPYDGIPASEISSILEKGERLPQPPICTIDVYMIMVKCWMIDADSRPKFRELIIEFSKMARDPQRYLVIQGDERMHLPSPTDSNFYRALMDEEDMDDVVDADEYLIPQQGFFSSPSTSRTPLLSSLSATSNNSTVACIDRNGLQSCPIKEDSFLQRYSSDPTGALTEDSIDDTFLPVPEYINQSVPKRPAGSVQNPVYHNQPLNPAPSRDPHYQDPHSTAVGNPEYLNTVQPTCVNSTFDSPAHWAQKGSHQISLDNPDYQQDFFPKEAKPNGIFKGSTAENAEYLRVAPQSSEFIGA

Turning to `CNCCC(=O)Nc1ccc2ncnc(Nc3ccc(F)c(Cl)c3)c2c1`, the negative logarithm of the IC50 (pIC50) in the assay with NCI-H1975 was 6.17; in the assay on HepG2, 4.83; in assay [1], 4.68.

For `Fc1cccc(Nc2ncnc3ccccc23)c1`, the pIC50 in the assay on NCI-H1975 was 5.12; with HepG2 it was 4.88; in assay [1], 4.82.

For `O=C(CCN1CCOCC1)Nc1ccc2ncnc(Nc3ccc(F)c(Cl)c3)c2c1`, the negative logarithm of the IC50 (pIC50) in the assay on NCI-H1975 was 5.52; in the assay on HepG2, 4.79; in assay [1], 4.71.

For `Fc1ccc(Nc2ncnc3ccccc23)cc1Cl`, the values for the pIC50 (in the assay on NCI-H1975; in the assay on HepG2; in assay [1]) were 5.35, < 4.00 and 4.30, respectively.

For `Cc1nc(Nc2ccc(F)c(Cl)c2)c2cc(NC(=O)CCN3CCCCC3)ccc2n1`, the pIC50 in the assay on NCI-H1975 is 6.06; with HepG2 it was 5.49; in assay [1], 5.55.

For `CNCCC(=O)Nc1ccc2nc(C)nc(Nc3ccc(F)c(Cl)c3)c2c1`, the values for the negative-log IC50 (pIC50) (in the assay with NCI-H1975; with HepG2; in assay [1]) were 6.32, 5.95 and 5.70, respectively.

Consider `Cc1nc(Nc2ccc(F)c(Cl)c2)c2cc(NC(=O)CCN(C)C)ccc2n1`, for which the pIC50 in the assay with NCI-H1975 was 6.96; with HepG2 it was 5.73; in assay [1], 5.98. The inhibition entry in assay [2] was “Active”.

Consider `Brc1cccc(Nc2ncnc3ccccc23)c1`, for which the results for the pIC50 (with NCI-H1975; in the assay on HepG2; in assay [1]) were 4.98, 4.10 and 4.61, respectively.

With `Cc1nc(Nc2ccc(F)c(Cl)c2)c2cc(NC(=O)CCN3CCOCC3)ccc2n1`, the values for the negative-log IC50 (pIC50) (in the assay with NCI-H1975; in the assay with HepG2; in assay [1]) were 5.94, 5.70 and 5.49, respectively.

As to `Fc1ccc(Nc2ncnc3ccccc23)cc1`, the negative-log IC50 (pIC50) in the assay on NCI-H1975 is 4.63; with HepG2 it was 4.54; in assay [1] it was 4.66.

`O=C(CCN1CCCCC1)Nc1ccc2ncnc(Nc3ccc(F)c(Cl)c3)c2c1`: the pIC50 in the assay with NCI-H1975 was 5.73; with HepG2 it was 5.07; in assay [1] it was 4.90.

`Fc1ccccc1Nc1ncnc2ccccc12`: the results for the pIC50 (with NCI-H1975; with HepG2; in assay [1]) were 4.97, 4.16 and 4.03, respectively.

Take `COc1cccc(Nc2ncnc3ccccc23)c1`: the pIC50 is 4.50 in the assay on NCI-H1975, 4.62 in the assay on HepG2 and 4.81 in assay [1].

As for `c1ccc(Nc2ncnc3ccccc23)cc1`, the negative logarithm of the IC50 (pIC50) in the assay with NCI-H1975 was 4.45; in the assay on HepG2 it was 4.18; in assay [1], 4.45.

Take `CN(C)CCC(=O)Nc1ccc2ncnc(Nc3ccc(F)c(Cl)c3)c2c1`: the pIC50 in the assay with NCI-H1975 is 6.44; in the assay on HepG2, 5.03; in assay [1] it was 5.02. Moreover, the inhibition result in assay [2] was “Active”.

Regarding `Clc1cccc(Nc2ncnc3ccccc23)c1`, the pIC50 is 4.98 with NCI-H1975, 4.63 in the assay on HepG2 and 4.66 in assay [1].
